The record followed here is patent US11052091B2, “BRK inhibitory compound” (ONO PHARMACEUTICAL CO., LTD., priority 2016, dated 2021).

In one experiment the target is Brk enzyme (Homo sapiens (Human), UniProt Q13882). Nature of the experiment: Measurement of Brk inhibitory activity (LanthaScreen TR-FRET). To be noted: read-out: Brk inhibitory activity (IC50). For orientation: Time-resolved FRET reads energy transfer from a long-lived donor to a nearby acceptor.
Another experiment deals with p38α (Homo sapiens (Human), UniProt Q16539). Briefly: Enzyme inhibitory activity on kinases other than Brk (selectivity), p38α. Format: biochemical. The settings on record: compound concentration of 1 μmol/L; read-out: inhibition rates (%) p38α. As for the experimental part: The compound of the present invention was dissolved in DMSO to prepare a solution with a concentration of 100 times the test concentration of 1 μmol/L. The solution was further diluted 25-fold with Assay Buffer (20 mmol/L HEPES, 0.01% Triton X-100, 2 mmol/L DTT, pH 7.5) to give a test substance solution. With regard to a positive control substance, a solution of the positive control substance was prepared in a similar manner.
Chain of p38α (Q16539 whole entry): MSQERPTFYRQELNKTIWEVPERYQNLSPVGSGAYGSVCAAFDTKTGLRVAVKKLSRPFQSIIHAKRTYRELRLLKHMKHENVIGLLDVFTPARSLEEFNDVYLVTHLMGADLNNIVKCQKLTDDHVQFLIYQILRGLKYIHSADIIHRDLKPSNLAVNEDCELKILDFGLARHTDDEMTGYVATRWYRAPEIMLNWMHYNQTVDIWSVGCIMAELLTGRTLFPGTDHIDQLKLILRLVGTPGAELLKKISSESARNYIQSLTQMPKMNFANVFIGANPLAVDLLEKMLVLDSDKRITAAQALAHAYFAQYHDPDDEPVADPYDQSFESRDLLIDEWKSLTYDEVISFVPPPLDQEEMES
Five microliters of a test substance solution with a concentration of four times prepared by using Assay Buffer, 5 μL of a solution of a substrate/ATP/a metal (Mg) with a concentration of four times and 10 μL of a solution of kinase with a concentration of two times were mixed in a well of a 384-well plate made of polypropylene, and the mixture was subjected to a reaction at room temperature for 1 hour. To the mixture, 60 μL of Termination Buffer (QuickScout Screening Assist MSA; Cama Biosciences, Inc.) was added to stop the reaction. The substrate peptide and the phosphorylated peptide in the reaction solution were separated, and were quantified. The kinase reaction was evaluated by a product ratio (P/(P+S)) calculated from a peak height (S) of the substrate peptide and a peak height (P) of the phosphorylated peptide. As other kinases, kinase selectivity experiments were performed using, for example, the p38α and Syk kinases. […]

A value given as a limit tells only on which side of the number the result lay.

Chain of Brk enzyme (Q13882 whole entry): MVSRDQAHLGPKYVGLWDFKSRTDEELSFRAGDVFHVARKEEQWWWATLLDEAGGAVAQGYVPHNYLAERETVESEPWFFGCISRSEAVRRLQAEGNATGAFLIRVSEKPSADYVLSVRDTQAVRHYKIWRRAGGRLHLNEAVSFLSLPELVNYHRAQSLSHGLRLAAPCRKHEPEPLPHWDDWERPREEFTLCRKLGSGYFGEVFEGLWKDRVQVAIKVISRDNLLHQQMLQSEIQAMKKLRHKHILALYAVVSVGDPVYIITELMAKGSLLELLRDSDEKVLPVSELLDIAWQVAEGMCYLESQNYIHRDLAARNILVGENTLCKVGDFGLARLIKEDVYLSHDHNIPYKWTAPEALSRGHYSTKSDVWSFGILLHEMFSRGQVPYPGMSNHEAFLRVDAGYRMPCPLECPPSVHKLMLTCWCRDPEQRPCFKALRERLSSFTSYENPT
Procedure for Brk enzyme: Measurement of an inhibitory activity on Brk enzyme was performed by using LanthaScreen (registered trademark) system (Invitrogen) in accordance with the attached manual. Reagents used are described below.
Reaction Buffer: A solution containing 50 mmol/L HEPES (pH 7.5), 0.01% Brij 35, 10 mmol/L MgCl2 and 1 mmol/L EGTA was prepared by using purified water.
A solution of a test substance (the compound of the present invention): A solution of each concentration of a test compound in DMSO was diluted 20-fold with Reaction Buffer, and a solution containing a test compound at a concentration 5 times a final concentration was prepared. An enzyme solution: A solution containing 480 ng/mL of Brk enzyme was prepared by using Reaction Buffer. […] A detection solution: A solution containing 20 mmol/L of EDTA and 4 nmol/L of PY20 (Invitrogen) was prepared by using Dilution B (Invitrogen).
To a 96-well plate (Nunc), a solution of 10 mmol/L of a test compound in DMSO was dispensed, and further, a dilution series at a common ratio of three was prepared by using DMSO. […] The phosphorylation of the artificial substrate was quantified by Time-Resolved Fluorescence Resonance Energy Transfer (TR-FRET). […]

For orientation: IC50 means the concentration that gives 50% inhibition. Turning to “6-amino-2-{[2-difluoro-4-(methylsulfonyl)phenyl]amino}-7-(7-fluoro-1H-indazol-4-yl)-9-isopropyl-7,9-dihydro-8H-purin-8-one [Example 5-11]”, the half-inhibitory concentration (IC50) at Brk enzyme stood at 22 nM. The inhibition is how much of the control response was suppressed. Turning to `CC(C)n1c(=O)n(-c2ccc(F)c3[nH]ncc23)c2c(N)nc(Nc3ccc(S(C)(=O)=O)cc3F)nc21` [Example 3, 6-amino-7-(7-fluoro-1H-indazol-4-yl)-2-{[2-fluoro-4-(methylsulfonyl)phenyl]amino}-9-isopropyl-7,9-dihydro-8H-purin-8-one], the inhibition at 1 µM at p38α is no more than 24%.
